Read-outs that look alike come from different tables or passages of the source.
Legend:
Format in all cases: cell-based
Rh30-Myr-p110γ cells = assay: Akt phosphorylation in isogenic Rh30-Myr-p110 cells (Western blot); conditions: Homo sapiens, serum-free 12 h, compound 1 h, band intensity, mean of three experiments
From the text: (§1) To assess the selectivity of X-370 in the context of an isogenic cellular background, we generated a panel of Rh30 human rhabdomyosarcoma cell lines each of which stably expresses a single myristoylated (Myr)-epitope tagged p110 human class I PI3K catalytic subunit, termed as Rh30-Myr-p110α, Rh30-Myr-p110β, Rh30-Myr-p110γ or Rh30-Myr-p110δ. In these cells, endogenous PI3K is not activated under serum-free culture conditions, whereas the ectopically expressed p110 isoforms are membrane-anchored and constitutively active due to myristoylation at N-terminal. Utilizing this cell panel, isoform-specific PI3K activity can be determined for any given inhibitor[25]. These cells were treated with X-370 and phosphorylated Akt was detected as the readout of PI3K activity. X-370 inhibited phosphorylation of Akt at both Thr308 and Ser473 in a dose-dependent manner in four tested cell lines (Figure 2A). […] Similar property was also observed in CAL-101 (Figure S2).
(§2) Cell lysates were probed with indicated antibodies. The IC50 values were calculated based on relative band intensity measured with ImageQuant™ TL (GE Healthcare Life Sciences, Piscataway, NJ) (B). Data shown are mean values from three independent experiments. (C, D, E, F) X-370 blocked stimuli-triggered PI3Kδ activation. MEF cells and THP-1 were starved in serum-free medium for 12 h or 4 h respectively and X-370 were added for an additional 1 h treatment following stimulation of IGF-1 at 100 ng/ml for MEF cells (C), LPA at 10 μM for MEF cells (D), MCP-1 at 100ng/ml for THP-1 (E) and M-CSF at 50 ng/ml for THP-1 (F). Similar results were derived from 3 independent experiments. TEXT PRINTED IN THE PICTURE: (B) X-370: IC50 (μM) in Rh30-Myr-p110s, Akt pT308, PI3Kα: 0.68; IC50 (μM) in Rh30-Myr-p110s, Akt pT308, PI3Kβ: 0.4; IC50 (μM) in Rh30-Myr-p110s, Akt pT308, PI3Kγ: 0.46; IC50 (μM) in Rh30-Myr-p110s, Akt pT308, PI3Kδ: 0.032; IC50 (μM) in Rh30-Myr-p110s, Akt pS473, PI3Kα: 0.53; IC50 (μM) in Rh30-Myr-p110s, Akt pS473, PI3Kβ: 0.29; IC50 (μM) in Rh30-Myr-p110s, Akt pS473, PI3Kγ: 0.23; IC50 (μM) in Rh30-Myr-p110s, Akt pS473, PI3Kδ: 0.02 DOUBTS OF THE COPYIST ABOUT THIS PICTURE: Panel B prints no substance label in the table itself; the label X-370 is taken from the other panels of the same picture, where it is the only substance printed. […]
(§3) Cells were treated as indicated conditions and then subjected to lysate to perform standard Western blot as described previously1. Briefly, whole-cell lysates and SDS-loading buffer diluted cell fractions were analyzed on SDS-PAGE gels. Transfer to nitrocellulose membranes, nonfat milk blocking, probing with indicated primary antibodies and the corresponding HRP-conjugated second antibodies.
(§4) Chemiluminescence were performed and captured using ImageQuant LAS 4000 (GE healthcare Life Sciences, Piscataway, NJ, USA) and band intensity was measure both with ImageQuant™ TL (GE Healthcare Life Sciences) 2. […]
(§5) (also on this page, place not known: PI3Kδ -dependent MEK1/2 - B -cell previously 1. whole -cell SDS -loading SDS -PAGE HRP -conjugated (G E A B Val828 Trp760 Thr750 Met752 Tyr813 affinity pocket specificity pocket hinge Glu826 CAL-101 X-370) […]
(§6) (1 picture or pasted object on this page, not shown here)

Rh30-Myr-p110α cells = assay: as above; conditions: Homo sapiens, serum-free 12 h, compound 1 h, band intensity, mean of three experiments
From the text: as §1, §2, §3, §4, §5, §6

Rh30-Myr-p110β cells = assay: as above; conditions: Homo sapiens, serum-free 12 h, compound 1 h, band intensity, mean of three experiments
From the text: as §1, §2, §3, §4, §5, §6

[1] = test system: human B cell leukemia cells; assay: Proliferation of a panel of human B cell leukemia cells (CCK-8); conditions: 72 h, range over the cell panel, read-out: IC50s, proliferation
Procedure: Cell viability was assessed using Cell Counting Kit (CCK-8, Dojindo, Japan) following the manufacturer's protocol and OD values were measured with a Spectramax M5 plate reader (Molecular Devices, Sunnyvale, CA)[45].
Figure S3: X-370 inhibited proliferation of human B cell leukemia cells. Cells were seeded in 96 -well plate and treated with serial diluted X-370 for 72 h. cell viability was then assessed by CCK-8 reagent and inhibitory rate was calculated. […]
antiproliferative activity of X-370 against these cells. […]

Question: Which IC50 (Rh30-Myr-p110γ cells; read-out: IC50 (μM) in Rh30-Myr-p110s, Akt pS473, PI3Kγ) does the source give for `O=C(N1CCCC1)N1CCC(n2cnc3c(-n4c(C(F)F)nc5ccccc54)nc(N4CCOCC4)nc32)CC1` [X-370] here?
Answer: The IC50 was 0.23 µM.

Question: What about the IC50 (Rh30-Myr-p110γ cells; read-out: IC50 (μM) in Rh30-Myr-p110s, Akt pT308, PI3Kγ) of the same molecule?
Answer: The IC50 was 0.46 µM.

Question: What about the IC50 (Rh30-Myr-p110α cells; read-out: IC50 (μM) in Rh30-Myr-p110s, Akt pS473, PI3Kα) of the same molecule?
Answer: Its IC50 is 0.53 µM.

Question: And the IC50 (Rh30-Myr-p110α cells; read-out: IC50 (μM) in Rh30-Myr-p110s, Akt pT308, PI3Kα)?
Answer: Its IC50 is 0.68 µM.

Question: And the IC50 (Rh30-Myr-p110β cells; read-out: IC50 (μM) in Rh30-Myr-p110s, Akt pS473, PI3Kβ)?
Answer: The IC50 was 0.29 µM.

Question: What about the IC50 (Rh30-Myr-p110β cells; read-out: IC50 (μM) in Rh30-Myr-p110s, Akt pT308, PI3Kβ) of the same molecule?
Answer: Its IC50 is 0.4 µM.

Question: What about the IC50 [1] of the same molecule?
Answer: Its IC50 is 40 to 6300 nM.
